Values after ≈ are worked out from the molar mass of the structure shown. Like-named read-outs stand apart in the source and are kept apart here.
Assays:
Type in all cases: cell-based
P. vulgaris A21559 = assay: In vitro MIC by tube dilution, P. vulgaris A21559; settings: Proteus vulgaris, A21559, P. vulgaris A21559; read-out: MIC
E. cloacae A-9656 = assay: In vitro MIC by tube dilution, E. cloacae A-9656; settings: Enterobacter cloacae, A9656, E. cloacae A-9656; read-out: MIC
S. aureus A-9537 = assay: In vitro MIC by tube dilution, S. aureus A-9537; settings: Staphylococcus aureus, read-out: MIC
P. mirabilis A-9900 = assay: In vitro MIC by tube dilution, P. mirabilis A-9900; settings: Proteus mirabilis, A9900, P. mirabilis A-9900; read-out: MIC
P. rettgeri A22424 = assay: In vitro MIC by tube dilution, P. rettgeri A22424; settings: Providencia rettgeri, read-out: MIC
P. morganii A15153 = assay: In vitro MIC by tube dilution, P. morganii (M. morganii) A15153; settings: Morganella morganii, read-out: MIC
S. marcescens A20019 = assay: In vitro MIC by tube dilution, S. marcescens A20019; settings: Serratia marcescens, read-out: MIC
[1] = system: S. aureus A-9606 (Pen-res.); assay: In vitro MIC by tube dilution, S. aureus A-9606 (Pen-res.); settings: Staphylococcus aureus, S. aureus A-9606 (Pen-res); read-out: MIC
K. pneumoniae A-9664 = assay: In vitro MIC by tube dilution, K. pneumoniae A-9664; settings: Klebsiella pneumoniae, A9664, read-out: MIC
P. aeruginosa A-9843A = assay: In vitro MIC by tube dilution, P. aeruginosa A-9843A; settings: Pseudomonas aeruginosa, A9843A, P. aeruginosa A-9843a; read-out: MIC
E. coli A20341-1 = assay: In vitro MIC by tube dilution, E. coli A20341-1; settings: Escherichia coli, A203411, read-out: MIC
E. cloacae A-9659 = assay: In vitro MIC by tube dilution, E. cloacae A-9659; settings: Enterobacter cloacae, A9659, E. cloacae A-9659; read-out: MIC
K. pneumoniae A20468 = assay: In vitro MIC by tube dilution, K. pneumoniae A20468; settings: Klebsiella pneumoniae, read-out: MIC
E. coli A15119 = assay: In vitro MIC by tube dilution, E. coli A15119; settings: Escherichia coli, read-out: MIC
S. faecalis A20688 = assay: In vitro MIC by tube dilution, S. faecalis A20688; settings: Enterococcus faecalis, A20688, S. faecalis A20688; read-out: MIC
P. aeruginosa A21213 = assay: In vitro MIC by tube dilution, P. aeruginosa A21213; settings: Pseudomonas aeruginosa; P. aeruginosa A21213; read-out: MIC
S. pneumoniae A-9585 = assay: In vitro MIC by tube dilution, S. pneumoniae A-9585; settings: Streptococcus pneumoniae, A9585, S. pneumoniae A-9585; read-out: MIC
S. pyogenes A9604 = assay: In vitro MIC by tube dilution, S. pyogenes A9604; settings: Streptococcus pyogenes, A9604, S. pyogenes A-9604; read-out: MIC
[2] = system: S. aureus A15097 (Meth-res.); assay: In vitro MIC by tube dilution, S. aureus A15097 (Meth-res.); settings: Staphylococcus aureus; S. aureus A15097 (Meth-res)
H. influenzae A21518 = assay: In vitro MIC by tube dilution, H. influenzae A21518; settings: Haemophilus influenzae
H. influenzae A-9833 = assay: In vitro MIC by tube dilution, H. influenzae A-9833; settings: Haemophilus influenzae, A9833
[3] = A9537, S. aureus A-9537, no serum
[4] = A9537, S. aureus A-9537 +50% serum

Structure (SMILES) | MIC (E. cloacae A-9656) [µg/mL] | MIC (S. aureus A-9537; [3]) [µg/mL] | MIC (P. mirabilis A-9900) [µg/mL] | MIC (P. rettgeri A22424; A22424, P. rettgeri A22424) [µg/mL] | MIC (P. morganii A15153; A15153, M. morganii A15153) [µg/mL] | MIC (S. marcescens A20019) [µg/mL] | MIC [1] [ng/mL] | MIC (K. pneumoniae A-9664) [µg/mL] | MIC (P. aeruginosa A-9843A) [µg/mL] | MIC (S. aureus A-9537; [4]) [µg/mL] | MIC (E. coli A20341-1) [ng/mL] | MIC (E. cloacae A-9659) [µg/mL] | MIC (E. coli A15119; E. coli A15119) [ng/mL] | MIC (S. faecalis A20688) [µg/mL] | MIC (S. pneumoniae A-9585) [ng/mL] | MIC (S. pyogenes A9604) [ng/mL] | MIC (K. pneumoniae A20468; A20468, K. pneumoniae A20468) [µg/mL] | also measured
C[C@@H](O)[C@H]1C(=O)N2C(C(=O)[O-])=C(SCc3cn(CC(=O)O)n[n+]3C)C[C@H]12 [Example 18, Potassium 3-[4-(1-carboxylatomethyl-3-methyl-1,2,3-triazolium)-methanethio]-6α-[1-(R)-hydroxyethyl]-7-oxo-1-azabicyclo[3.2.0]hept-2-ene-2-carboxylate] | 125 | 32 | 32 | 32 | 32 | 32 | > 125000 | 32 | – | – | – | – | – | – | – | – | – | MIC (P. vulgaris A21559): 32 µg/mL
C[C@@H](O)[C@H]1C(=O)N2C(C(=O)[O-])=C(SCc3cn(C)n[n+]3C)C[C@H]12 [Example 15 "A", 3-[4-(N,N-dimethyl-1,2,3-triazolium)methylthio]-6α-[1-(R)-hydroxyethyl]-7-oxo-1-azabicyclo(3.2.0)hept-2-ene-2-carboxylate] | 0.016 (≈ 0.0473 µM) | 0.03 (≈ 0.0887 µM) | 0.008 (≈ 0.0236 µM) | – | – | 0.008 (≈ 0.0236 µM) | 4 (≈ 0.0118 µM) | 0.008 (≈ 0.0236 µM) | 0.5 (≈ 1.48 µM) | 0.03 (≈ 0.0887 µM) | 4 (≈ 0.0118 µM) | 0.016 (≈ 0.0473 µM) | 4 (≈ 0.0118 µM) | 0.13 (≈ 0.384 µM) | – | – | – | MIC (P. rettgeri A22424; P. rettgeri A22424): 0.03 µg/mL (≈ 0.0887 µM); MIC (P. morganii A15153; M. morganii A15153): 0.03 µg/mL (≈ 0.0887 µM); MIC (K. pneumoniae A20468; K. pneumoniae A20468): 0.008 µg/mL (≈ 0.0236 µM); MIC (P. aeruginosa A21213): 0.03 µg/mL (≈ 0.0887 µM)
C[C@@H](O)[C@H]1C(=O)N2C(C(=O)[O-])=C(SCCc3cccc[n+]3C)C[C@H]12 [Example 5, 3-(N-Methylpyridine-2-yl-ethanethio]-6α-[1-(R)-hydroxyethyl]-7-oxo-1-azabicyclo(3.2.0)hept-2-ene-2-carboxylate] | 0.13 (≈ 0.373 µM) | 0.004 (≈ 0.0115 µM) | 0.03 (≈ 0.0861 µM) | 0.13 (≈ 0.373 µM) | 0.06 (≈ 0.172 µM) | 0.06 (≈ 0.172 µM) | 8 (≈ 0.023 µM) | 0.03 (≈ 0.0861 µM) | 4 (≈ 11.5 µM) | 0.016 (≈ 0.0459 µM) | 16 (≈ 0.0459 µM) | 0.06 (≈ 0.172 µM) | – | – | 4 (≈ 0.0115 µM) | 4 (≈ 0.0115 µM) | 0.06 (≈ 0.172 µM) | MIC (E. coli A15119; A15119, E. coli A15119): 16 ng/mL (≈ 0.0459 µM); MIC [2]: 8 µg/mL (≈ 23 µM)
Cc1ccc[n+](C)c1CSC1=C(C(=O)[O-])N2C(=O)[C@H]([C@@H](C)O)[C@H]2C1 [Example 7, 3-(N-Methyl-3-methylpyridine-2-methanethio)-6α-[1-(R)-hydroxyethyl]-7-oxo-1-azabicyclo(3.2.0)hept-2-ene-2-carboxylate] | 0.016 (≈ 0.0459 µM) | 0.008 (≈ 0.023 µM) | 0.016 (≈ 0.0459 µM) | 0.06 (≈ 0.172 µM) | 0.016 (≈ 0.0459 µM) | 0.008 (≈ 0.023 µM) | 16 (≈ 0.0459 µM) | 0.016 (≈ 0.0459 µM) | 1 (≈ 2.87 µM) | 0.03 (≈ 0.0861 µM) | 4 (≈ 0.0115 µM) | 0.016 (≈ 0.0459 µM) | 4 (≈ 0.0115 µM) | 0.13 (≈ 0.373 µM) | 4 (≈ 0.0115 µM) | 4 (≈ 0.0115 µM) | 0.016 (≈ 0.0459 µM) | MIC (H. influenzae A21518): > 32 µg/mL; MIC (H. influenzae A-9833): > 32 µg/mL

Source: patent publication US4746736A, “Carbapenem antibiotics” (priority 1986, dated 1988)
